Data reported in ChEMBL document CHEMBL1137160, “Structure-activity relationships of methylene or terminal side chain modified retinoids on the differentiation and cell death signaling in NB4 promyelocytic leukemia cells” (2004).

How the values were obtained:
NB-4 [1] = assay: Evaluated for mean value of the fluorescence intensity of CD11c-PE expressing NB4 cells at day 3; type: functional, Homo sapiens
NB-4 [2] = assay: Evaluated for mean value of the fluorescence intensity of CD11c-PE expressing NB4 cells at day 6; type: functional, Homo sapiens
NB-4 [3] = assay: Ability to induce maturation and cell death of NB4 cells labelled with V-FITC on day 3; type: functional, Homo sapiens; set-up: concentration or dose not given beside the values
NB-4 [4] = assay: Ability to induce maturation and cell death of NB4 cells labelled with V-FITC on day 6; type: functional, Homo sapiens; set-up: concentration or dose not given beside the values
[5] = biological target: T1, Retinoic acid receptor RXR-beta (Homo sapiens) (UniProt P28702); assay: Agonist activity for Retinoid X receptor beta as photons in presence and absence of ligand; type: functional; set-up: unit not given here
T1 sequence (whole entry): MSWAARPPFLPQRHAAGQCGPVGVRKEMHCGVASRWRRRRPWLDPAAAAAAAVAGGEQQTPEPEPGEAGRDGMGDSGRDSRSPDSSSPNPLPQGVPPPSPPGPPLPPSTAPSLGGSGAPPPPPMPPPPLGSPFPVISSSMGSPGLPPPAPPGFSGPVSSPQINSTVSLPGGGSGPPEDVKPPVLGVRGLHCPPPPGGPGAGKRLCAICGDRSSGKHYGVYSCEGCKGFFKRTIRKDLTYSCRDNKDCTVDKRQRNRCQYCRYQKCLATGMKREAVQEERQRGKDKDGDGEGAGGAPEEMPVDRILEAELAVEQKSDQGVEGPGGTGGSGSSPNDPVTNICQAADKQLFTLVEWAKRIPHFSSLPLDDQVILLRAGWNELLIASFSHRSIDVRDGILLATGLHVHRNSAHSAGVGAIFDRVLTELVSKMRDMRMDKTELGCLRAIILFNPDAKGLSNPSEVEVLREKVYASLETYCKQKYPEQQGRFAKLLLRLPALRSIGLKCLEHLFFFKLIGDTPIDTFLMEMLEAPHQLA

[6] = biological target: T2, Retinoic acid receptor alpha (Homo sapiens) (UniProt P10276); assay: Agonist activity for Retinoic acid receptor alpha as photons in presence and absence of ligand; type: functional; set-up: unit not given here
T2 sequence (whole entry): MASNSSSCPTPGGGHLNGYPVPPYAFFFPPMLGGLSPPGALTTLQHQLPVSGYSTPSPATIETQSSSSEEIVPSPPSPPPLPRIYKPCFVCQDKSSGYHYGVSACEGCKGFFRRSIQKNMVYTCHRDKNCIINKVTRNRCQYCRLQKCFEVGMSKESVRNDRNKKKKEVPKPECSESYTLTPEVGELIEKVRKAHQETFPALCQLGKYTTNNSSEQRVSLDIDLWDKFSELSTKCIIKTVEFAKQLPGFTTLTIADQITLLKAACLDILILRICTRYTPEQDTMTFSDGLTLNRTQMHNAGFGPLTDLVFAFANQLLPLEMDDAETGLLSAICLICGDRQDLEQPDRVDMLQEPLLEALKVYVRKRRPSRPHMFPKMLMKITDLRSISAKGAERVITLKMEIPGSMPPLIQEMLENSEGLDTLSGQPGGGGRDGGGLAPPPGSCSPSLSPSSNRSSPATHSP

[7] = biological target: T3, Retinoic acid receptor gamma (Homo sapiens) (UniProt P13631); assay: Agonist activity for Retinoic acid receptor gamma as photons in presence and absence of ligand; type: functional; set-up: concentration or dose not given beside the values
T3 sequence (whole entry): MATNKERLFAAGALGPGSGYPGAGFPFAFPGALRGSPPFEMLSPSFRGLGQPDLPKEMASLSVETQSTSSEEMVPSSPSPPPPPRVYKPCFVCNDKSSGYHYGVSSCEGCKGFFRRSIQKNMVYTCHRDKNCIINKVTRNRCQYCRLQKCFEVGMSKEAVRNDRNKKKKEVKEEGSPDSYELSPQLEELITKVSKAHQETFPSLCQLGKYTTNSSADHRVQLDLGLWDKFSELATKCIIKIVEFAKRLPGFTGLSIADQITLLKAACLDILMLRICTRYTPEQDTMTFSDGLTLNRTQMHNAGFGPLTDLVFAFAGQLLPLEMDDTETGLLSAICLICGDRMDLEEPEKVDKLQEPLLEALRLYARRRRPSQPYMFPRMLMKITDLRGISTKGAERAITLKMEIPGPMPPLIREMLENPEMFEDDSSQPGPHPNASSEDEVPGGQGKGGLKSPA

[8] = biological target: T4, Retinoic acid receptor beta (Homo sapiens) (UniProt P10826); assay: Agonist activity for Retinoic acid receptor beta as photons in presence and absence of ligand; type: functional; set-up: unit not given here
T4 sequence (whole entry): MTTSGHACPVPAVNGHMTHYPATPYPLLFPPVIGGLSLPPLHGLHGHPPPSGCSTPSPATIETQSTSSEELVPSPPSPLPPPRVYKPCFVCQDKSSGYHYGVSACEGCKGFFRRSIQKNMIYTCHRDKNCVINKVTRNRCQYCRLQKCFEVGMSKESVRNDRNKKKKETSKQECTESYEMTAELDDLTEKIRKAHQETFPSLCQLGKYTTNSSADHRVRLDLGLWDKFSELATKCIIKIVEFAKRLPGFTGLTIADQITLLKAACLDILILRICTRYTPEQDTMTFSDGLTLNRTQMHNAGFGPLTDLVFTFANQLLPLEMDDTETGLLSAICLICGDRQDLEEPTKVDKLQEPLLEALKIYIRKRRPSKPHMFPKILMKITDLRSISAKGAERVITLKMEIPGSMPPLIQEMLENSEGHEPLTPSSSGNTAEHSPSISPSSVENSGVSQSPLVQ

**Q.** How did the Activity (NB-4 [1]) turn out when `C/C(=C\c1ccc(C(=O)O)cc1)c1ccc2c(c1)C(C)(C)CCC2(C)C` was run?
**A.** 106

**Q.** What about the Activity (NB-4 [2]) of the same compound?
**A.** 170

**Q.** And the Activity (NB-4 [3])?
**A.** 14%

**Q.** What about the Activity (NB-4 [4]) of the same compound?
**A.** 35%

**Q.** With `CC1=C(/C=C/C(C)=C/C=C/C(C)=C/C(=O)O)C(C)(C)CCC1` [TRETINOIN] as the compound, how does the Activity (NB-4 [1]) read?
**A.** 110

**Q.** What about the Activity (NB-4 [2]) of the same compound?
**A.** 197

**Q.** And the Activity (NB-4 [3])?
**A.** 14%

**Q.** And the Activity (NB-4 [4])?
**A.** 50%

**Q.** Which Activity (NB-4 [1]) does the source give for `CC1(C)CCC(C)(C)c2cc(C3(c4ccc(C(=O)O)cc4)OCCO3)ccc21` here?
**A.** 22

**Q.** And the Activity (NB-4 [2])?
**A.** 23

**Q.** What about the Activity (NB-4 [3]) of the same compound?
**A.** 11%

**Q.** What about the Activity (NB-4 [4]) of the same compound?
**A.** 11%

**Q.** Which results are given for `C=C(/C=C/C1=C(C)CCCC1(C)C)C/C=C/C(C)=C/C(=O)O`?
**A.** Activity (NB-4 [1]): 117; Activity (NB-4 [2]): 163; Activity [5]: 5.8; Activity (NB-4 [3]): 18%; Activity (NB-4 [4]): 56%; Activity [6]: 7; Activity [7]: 3.3; Activity [8]: 7.2

**Q.** With `CC1=C(/C=C/C(C)=C/C=C(C#N)/C(C)=C\C(=O)O)C(C)(C)CCC1` as the compound, how does the Activity (NB-4 [1]) read?
**A.** 88

**Q.** What about the Activity (NB-4 [2]) of the same compound?
**A.** 126

**Q.** And the Activity [5]?
**A.** 2.1

**Q.** What about the Activity (NB-4 [3]) of the same compound?
**A.** 9%

**Q.** What about the Activity (NB-4 [4]) of the same compound?
**A.** 20%

**Q.** What about the Activity [6] of the same compound?
**A.** 23.5

**Q.** What about the Activity [7] of the same compound?
**A.** 8.9

**Q.** And the Activity [8]?
**A.** 14.6

**Q.** Which results are given for `C=C(/C=C/C1=C(C)CCCC1(C)C)C/C=C/C=C\C(=O)O`?
**A.** Activity (NB-4 [1]): 33; Activity (NB-4 [2]): 35; Activity [5]: 2; Activity (NB-4 [3]): 10%; Activity (NB-4 [4]): 12%; Activity [6]: 7.1; Activity [7]: 7.9; Activity [8]: 13.1

**Q.** For `C=C(/C=C/c1ccccc1)C/C=C/C(C)=C\C(=O)O`, which Activity (NB-4 [1]) is on record?
**A.** 15

**Q.** What about the Activity (NB-4 [2]) of the same compound?
**A.** 12

**Q.** And the Activity [5]?
**A.** 13.5

**Q.** What about the Activity (NB-4 [3]) of the same compound?
**A.** 9%

**Q.** What about the Activity (NB-4 [4]) of the same compound?
**A.** 8%

**Q.** What about the Activity [6] of the same compound?
**A.** 4.9

**Q.** And the Activity [7]?
**A.** 4.6

**Q.** And the Activity [8]?
**A.** 4

**Q.** With `COC(=O)\C=C(C)/C(C#N)=C/C=C(C)/C=C/C1=C(C)CCCC1(C)C` as the compound, how does the Activity (NB-4 [1]) read?
**A.** 10

**Q.** And the Activity (NB-4 [2])?
**A.** 10

**Q.** And the Activity [5]?
**A.** 1.6

**Q.** What about the Activity (NB-4 [3]) of the same compound?
**A.** 13%

**Q.** And the Activity (NB-4 [4])?
**A.** 8%

**Q.** And the Activity [6]?
**A.** 1.3

**Q.** And the Activity [7]?
**A.** 3

**Q.** And the Activity [8]?
**A.** 6.7

**Q.** How did the Activity [5] turn out when `CC1=C(/C=C/C(C)=C\C=C\C(C)=C\C(=O)O)C(C)(C)CCC1` was run?
**A.** 14.5

**Q.** `CC1=C(/C=C/C(C)=C/C=C(\C#N)C(C)=C(C(=O)O)C(=O)O)C(C)(C)CCC1` was tested. Which Activity (NB-4 [1]) did it give?
**A.** 77

**Q.** What about the Activity (NB-4 [2]) of the same compound?
**A.** 64

**Q.** And the Activity [5]?
**A.** 3

**Q.** What about the Activity (NB-4 [3]) of the same compound?
**A.** 11%

**Q.** What about the Activity (NB-4 [4]) of the same compound?
**A.** 12%

**Q.** And the Activity [6]?
**A.** 22.2

**Q.** What about the Activity [7] of the same compound?
**A.** 11.7

**Q.** What about the Activity [8] of the same compound?
**A.** 17.9

**Q.** Which Activity (NB-4 [1]) does the source give for `C=C(/C=C/C1=C(C)CCCC1(C)C)C/C=C/C(C)=C\C(=O)O` here?
**A.** 38

**Q.** And the Activity (NB-4 [2])?
**A.** 43

**Q.** And the Activity [5]?
**A.** 2.1

**Q.** And the Activity (NB-4 [3])?
**A.** 11%

**Q.** And the Activity (NB-4 [4])?
**A.** 14%

**Q.** And the Activity [6]?
**A.** 11.8

**Q.** And the Activity [7]?
**A.** 10.9

**Q.** And the Activity [8]?
**A.** 14.5
